The values below are quoted from earlier work in patent US20120277147A1, “PREVENTION OF HYPOGLYCAEMIA IN DIABETES MELLITUS TYPE 2 PATIENTS” (priority 2011, published 2012).

The test system of the data set is patients with type 2 diabetes treated with metformin and a sulfonylurea. Particulars: 30 week; patients unable to achieve adequate glycemic control with combined metformin-sulfonylurea therapy.

For “Exendin-4: native exendin peptide, SEQ ID NO: 2 (39 AS), which can lower blood glucose concentration”, the “Effect on HbA1c” value is given as “significantly reduced HbA1c”.
